Molecules are shown by their SMILES.

This test addresses T1, H. sapiens SLC2A9 variant 2 (GLUT9B) (Homo sapiens, UniProt Q9NRM0).
T1 sequence (Q9NRM0 1-511 isoform Q9NRM0-2): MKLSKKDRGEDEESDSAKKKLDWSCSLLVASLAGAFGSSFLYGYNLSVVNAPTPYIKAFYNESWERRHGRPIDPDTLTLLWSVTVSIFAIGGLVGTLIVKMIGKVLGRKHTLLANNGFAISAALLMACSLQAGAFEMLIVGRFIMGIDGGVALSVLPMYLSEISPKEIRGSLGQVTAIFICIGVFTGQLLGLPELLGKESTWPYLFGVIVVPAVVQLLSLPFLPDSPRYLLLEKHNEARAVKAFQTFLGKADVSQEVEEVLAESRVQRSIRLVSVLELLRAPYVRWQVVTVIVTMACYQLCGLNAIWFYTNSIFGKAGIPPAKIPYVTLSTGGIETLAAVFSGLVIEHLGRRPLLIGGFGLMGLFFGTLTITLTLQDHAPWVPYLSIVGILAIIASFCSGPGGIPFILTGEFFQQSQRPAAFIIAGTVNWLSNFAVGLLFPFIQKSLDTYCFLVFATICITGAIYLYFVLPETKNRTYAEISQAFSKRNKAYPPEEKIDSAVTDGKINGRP
The test is described as follows: GLUT9 functional assay: uric acid uptake in HEK293T cells, allantoin formation by MS/MS as proxy of GLUT9B inhibition. Format: cell-based. The following applies: 15 minute assay; HEK293T cells stably expressing GLUT9B and transiently A. oryzae uricase; uric acid 0.3 mM, 37° C.; read-out: 15 min IC50. The essentials:
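Inhibition of GLUT9B-mediated urate uptake read as reduced allantoin formation, measured by MS/MS against allantoin standards in HEK293T matrix with log-logistic fitting. Stable GLUT9B HEK293T cells carrying transfected A. oryzae uricase were incubated 15 or 60 min at 37° C with uric acid at Km (0.3 mM), pH 7.4 gluconate buffer.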
In the case of `O=C(O)c1c[nH]c2cc(-c3cc(CCC(F)(F)F)cnc3-c3cc(F)c4occc4c3)ccc12` [Compound 63, 6-(2-(7-fluorobenzofuran-5-yl)-5-(3,3,3-trifluoropropyl)pyridin-3-yl)-1H-indole-3-carboxylic acid], the IC50 is 500 to 2000 nM.
For the compound `O=C(O)C1CCN(c2nc(COCC(F)(F)F)cnc2-c2cnc3occc3c2)CC1` [Compound 64, 1-(3-(furo[2,3-b]pyridin-5-yl)-6-((2,2,2-trifluoroethoxy)methyl)pyrazin-2-yl)piperidine-4-carboxylic acid], the IC50 is above 2000 nM.
Then `Fc1cc(-c2ncc(COCC(F)(F)F)nc2N2CCC(c3nn[nH]n3)CC2)cc2ccoc12` [Compound 65, 3-(4-(2H-tetrazol-5-yl)piperidin-1-yl)-2-(7-fluorobenzofuran-5-yl)-5-((2,2,2-trifluoroethoxy)methyl)pyrazine], with below 500 nM; and `CS(=O)(=O)NC(=O)C1CCN(c2nc(COCC(F)(F)F)cnc2-c2cc(F)c3occc3c2)CC1` [Compound 66, 1-(3-(7-fluorobenzofuran-5-yl)-6-((2,2,2-trifluoroethoxy)methyl)pyrazin-2-yl)-N-(methylsulfonyl)piperidine-4-carboxamide], with 500 to 2000 nM; and `COCCOc1ccc(-c2ncc(COCC(F)(F)F)nc2N2CCC(C(=O)NS(C)(=O)=O)CC2)cc1` [Compound 67, 1-(3-(4-(2-methoxyethoxy)phenyl)-6-((2,2,2-trifluoroethoxy)methyl)pyrazin-2-yl)-N-(methylsulfonyl)piperidine-4-carboxamide], with above 2000 nM.
Regarding `COCCOc1ccc(-c2ncc(COCC(F)(F)F)nc2N2CCC(c3nn[nH]n3)CC2)cc1` [Compound 68, 3-(4-(2H-tetrazol-5-yl)piperidin-1-yl)-2-(4-(2-methoxyethoxy)phenyl)-5-((2,2,2-trifluoroethoxy)methyl)pyrazine], the IC50 is above 2000 nM.
The result for `Fc1cc(-c2ncc(CCC(F)(F)F)nc2N2CCC(c3nn[nH]n3)CC2)cc2ccoc12` [Compound 69, 3-(4-(2H-tetrazol-5-yl)piperidin-1-yl)-2-(7-fluorobenzofuran-5-yl)-5-(3,3,3-trifluoropropyl)pyrazine] reads below 500 nM; that for `COCCOc1ccc(-c2ncc(CCC(F)(F)F)nc2N2CCC(C(=O)NS(C)(=O)=O)CC2)cc1` [Compound 70, 1-(3-(4-(2-methoxyethoxy)phenyl)-6-(3,3,3-trifluoropropyl)pyrazin-2-yl)-N-(methylsulfonyl)piperidine-4-carboxamide], 500 to 2000 nM.
Then `COCCOc1ccc(-c2ncc(CCC(F)(F)F)nc2N2CCC(c3nn[nH]n3)CC2)cc1` [Compound 71, 3-(4-(2H-tetrazol-5-yl)piperidin-1-yl)-2-(4-(2-methoxyethoxy)phenyl)-5-(3,3,3-trifluoropropyl)pyrazine], with below 500 nM; and `O=C(O)C1CCN(c2nc(COCC(F)(F)F)cnc2-c2cnc3c(c2)CCO3)CC1` [Compound 72, 1-(3-(2,3-dihydrofuro[2,3-b]pyridin-5-yl)-6-((2,2,2-trifluoroethoxy)methyl)pyrazin-2-yl)piperidine-4-carboxylic acid], with above 2000 nM.
With `O=C(O)C1CCN(c2nc(CCC3CC3)cnc2-c2cc(F)c3occc3c2)CC1` [Compound 73, 1-(6-(2-cyclopropylethyl)-3-(7-fluorobenzofuran-5-yl)pyrazin-2-yl)piperidine-4-carboxylic acid], the half-inhibitory concentration (IC50) was below 500 nM.
Then `COCCOc1ccc(-c2ncc(CCC3CC3)nc2N2CCC(C(=O)O)CC2)cc1` [Compound 74, 1-(6-(2-cyclopropylethyl)-3-(4-(2-methoxyethoxy)phenyl)pyrazin-2-yl)piperidine-4-carboxylic acid], with 500 to 2000 nM.
As for `O=C(O)C1CCN(c2nc(COCC(F)(F)F)cnc2-c2ccc(OC3CC3)cc2)CC1` [Compound 75, 1-(3-(4-cyclopropoxyphenyl)-6-((2,2,2-trifluoroethoxy)methyl)pyrazin-2-yl)piperidine-4-carboxylic acid], the half-inhibitory concentration (IC50) was above 2000 nM.
Then `O=C(O)C1CCN(c2nc(COCC(F)(F)F)cnc2-c2ccc(OC3CC3)c(F)c2)CC1` [Compound 76, 1-(3-(4-cyclopropoxy-3-fluorophenyl)-6-((2,2,2-trifluoroethoxy)methyl)pyrazin-2-yl)piperidine-4-carboxylic acid], with 500 to 2000 nM.
The result for `O=C(O)C1CCN(c2nc(COCC(F)(F)F)cnc2-c2ccc(OCC3CC3)cc2)CC1` [Compound 77, 1-(3-(4-(cyclopropylmethoxy)phenyl)-6-((2,2,2-trifluoroethoxy)methyl)pyrazin-2-yl)piperidine-4-carboxylic acid] reads above 2000 nM; that for `O=C(O)C1CCN(c2nc(COCC(F)(F)F)cnc2-c2ccc(OCC3CC3)c(F)c2)CC1` [Compound 78, 1-(3-(4-(cyclopropylmethoxy)-3-fluorophenyl)-6-((2,2,2-trifluoroethoxy)methyl)pyrazin-2-yl)piperidine-4-carboxylic acid], above 2000 nM.
The result for `CCCCc1cnc(-c2ccc3c(c2)CC(C)(C)O3)c(N2CCC(C(=O)O)CC2)n1` [Compound 79, 1-(6-butyl-3-(2,2-dimethyl-2,3-dihydrobenzofuran-5-yl)pyrazin-2-yl)piperidine-4-carboxylic acid] reads above 2000 nM; that for `CN(C)S(=O)(=O)NC(=O)C1CCN(c2nc(COCC(F)(F)F)cnc2-c2cc(F)c3occc3c2)CC1` [Compound 80, N-(N,N-dimethylsulfamoyl)-1-(3-(7-fluorobenzofuran-5-yl)-6-((2,2,2-trifluoroethoxy)methyl)pyrazin-2-yl)piperidine-4-carboxamide], 500 to 2000 nM; that for `O=c1[nH]c(C2CCN(c3nc(COCC(F)(F)F)cnc3-c3cc(F)c4occc4c3)CC2)ns1` [Compound 81, 3-(1-(3-(7-fluorobenzofuran-5-yl)-6-((2,2,2-trifluoroethoxy)methyl)pyrazin-2-yl)piperidin-4-yl)-1,2,4-thiadiazol-5(4H)-one], 500 to 2000 nM.
For the compound `O=c1[nH]c(C2CCN(c3nc(COCC(F)(F)F)cnc3-c3cc(F)c4occc4c3)CC2)no1` [Compound 82, 3-(1-(3-(7-fluorobenzofuran-5-yl)-6-((2,2,2-trifluoroethoxy)methyl)pyrazin-2-yl)piperidin-4-yl)-1,2,4-oxadiazol-5(4H)-one], the IC50 is below 500 nM.
In the case of `O=S1NC(C2CCN(c3nc(COCC(F)(F)F)cnc3-c3cc(F)c4occc4c3)CC2)=NO1` (centres unmarked) [Compound 83, 4-(1-(3-(7-fluorobenzofuran-5-yl)-6-((2,2,2-trifluoroethoxy)methyl)pyrazin-2-yl)piperidin-4-yl)-3H-1,2,3,5-oxathiadiazole 2-oxide], the half-inhibitory concentration (IC50) is 500 to 2000 nM.
The result for `CS(=O)(=O)CCc1cnc(-c2cc(F)c3occc3c2)c(N2CCC(C(=O)O)CC2)n1` [Compound 84, 1-(3-(7-fluorobenzofuran-5-yl)-6-(2-(methylsulfonyl)ethyl)pyrazin-2-yl)piperidine-4-carboxylic acid] reads above 2000 nM.
The result for `COCCOc1ccc(-c2ncc(CCS(C)(=O)=O)nc2N2CCC(C(=O)O)CC2)cc1` [Compound 85, 1-(3-(4-(2-methoxyethoxy)phenyl)-6-(2-(methylsulfonyl)ethyl)pyrazin-2-yl)piperidine-4-carboxylic acid] reads above 2000 nM.
